Where two headings read alike, the source gives them in different places. Marks after values point to notes of the source that are not given here.
What was measured:
2D rat cortical cultures [1] = details: cited from earlier work; for AC50: read-out: ac50 CCTE_Shafer_MEA_dev_LDH, rNFA mc5
2D rat cortical cultures [2] = details: cited from earlier work; for AC50: read-out: ac50 CCTE_Shafer_MEA_dev_AB, rNFA mc5; for Cytotoxicity in the resazurin assay of the rNFA (in words): ref Brown et al. [2016], Carstens et al. [2022], Frank et al. [2017b], Shafer et al. [2019], ToxCast invitrodb (v4.2)
BrainSpheres = assay: Cytotoxicity evaluation, resazurin assay (BrainSphere.Cyto); type: cell-based, human; details: for AC50: read-out: ac50 BrainSphere.Cyto; for Top BrainSphere.Cyto: top of winning model, response normalized as percent of vehicle control, negative = decrease; for hitc BrainSphere.Cyto: key: 1 (active); 0 (inactive)
Experimental: For the resazurin assay, BrainSpheres were cultured for 7 weeks in non-treated 6-well plates under gyratory shaking. Subsequently, the cells were exposed in the same manner as the HD-MEA plates. This assay was used to determine cell viability after exposure for 13 days to the different compounds. After exposure, resazurin diluted in PBS was added directly to the 6-well plates to a final concentration of 0.1 mg/ml. The plates were then put in an incubator for 3 h at 37 °C, 5% CO2. Then, 100 µl of the media was collected and transferred in a 96-well plate for fluorescence analysis, which was done at ex:530 nm/em:590 nm in a multi-well fluorometric reader CytoFluor series 4000 (PerSeptive Biosystems, Inc).
Ten metrics were measured to evaluate changes in neural activity in the BrainSphere MEA assay (Table 3). Considering the complexity of the data which includes seven recording days for each single ROI in a well, an area under the curve (AUC) metric was used to reduce activity across time as described in previous publications (Brown et al. [2016]; Frank et al. [2017b]; Shafer et al. [2019]). […] For concentration–response modeling, the mean AUC values across all the BrainSpheres per well (technical replicates) was computed for each endpoint, such that each concentration included biological replicates from at least three separate wells on three separate plates, representing each individual experiment. The mean AUC values were used for concentration–response modeling using the R package tcplfit2 (version 0.1.6) (Sheffield et al. [2022]). Data were normalized as a percent of vehicle control wells by plate using the equation: resp.pc=rval-bval/bval×100 where resp.pc is the percent of control value, rval is the response value, and bval is the baseline value (defined as the mean of the vehicle control and the lowest tested concentration). […] The activity cutoff was defined as 3 times the median absolute deviation (bmad) of baseline values. A curve was defined as ‘active’ if the continuous hit call was ≥ 0.9. See Supplemental Table 1 for the bmad, activity cutoff threshold, SD, and benchmark response for each endpoint in the BrainSphere MEA. Potency was defined as the concentration at 50% maximal activity (AC50 log10 µM).

[3] = rNFA mc5 hit call, cytotoxicity LDH
[4] = rNFA mc5 hit call, cytotoxicity AlamarBlue
[5] = Homo sapiens, 312 h, resazurin, day 13, Supplement 3 prints it also for curves with hit call 0
[6] = resazurin, after 13 days of exposure
[7] = tcplfit2 BMD at benchmark response (1.349*SD of baseline controls)
[8] = tcplfit2 output ACC, activity cutoff in Supplemental Table 1
[9] = resazurin, day 13, Supplement 3 prints it also for curves with hit call 0

Row | Structure (SMILES) | hitc CCTE_Shafer_MEA_dev_LDH (2D rat cortical cultures [1]; [3]) | hitc CCTE_Shafer_MEA_dev_AB (2D rat cortical cultures [2]; [4]) | AC50 (BrainSpheres; [5]) [µM] | BMD BrainSphere.Cyto (BrainSpheres; human) [µM] | Cytotoxicity hit (BrainSpheres; human) | hitc BrainSphere.Cyto (BrainSpheres; human) | AC50 (2D rat cortical cultures [1]; cytotoxicity LDH) [µM] | AC50 (BrainSpheres; Homo sapiens, 312 h) [µM] | Cytotoxicity hit (BrainSpheres; [6]) | hitc BrainSphere.Cyto (BrainSpheres; resazurin, day 13, tcplfit2) | BMD BrainSphere.Cyto (BrainSpheres; [7]) [µM] | ACC BrainSphere.Cyto (BrainSpheres; [8]) [µM] | AC50 (2D rat cortical cultures [2]; cytotoxicity AlamarBlue) [µM] | Cytotoxicity in the resazurin assay of the rNFA (in words) (2D rat cortical cultures [2]) | also measured
1 | CCCC(CCC)C(=O)O [Sodium valproate] | 0 | 0 | 45 | 117 | 0 | 0 | – | – | – | – | – | – | – | – | –
2 | C/C(=C/C=C/[C@@H](C)C(=O)O)[C@H]1CN[C@H](C(=O)O)[C@H]1CC(=O)O [Domoic acid] | 1 | 0 | – | – | – | – | 6.75 | 5 | 0 | 0 | 4.5 | 5.4 | – | – | Cytotoxicity / cell viability in the BrainSphere resazurin assay (in words) (BrainSpheres; day 13 of exposure): magnitude of the response was not sufficient to indicate a positive response
3 | CN(C)C(=O)C(CCN1CCC(O)(c2ccc(Cl)cc2)CC1)(c1ccccc1)c1ccccc1 [Loperamide] | – | – | – | 8.4 | 1* | 1 | 2.94 | 18 | – | – | – | – | 5.02 | – | Cytotoxicity / cell viability in the BrainSphere resazurin assay (in words) (BrainSpheres): positive hit call for cytotoxicity; ACC BrainSphere.Cyto (BrainSpheres; human): 8.7 µM; Cytotoxicity / cell viability in the BrainSphere resazurin assay (in words) (BrainSpheres; human): appeared to demonstrate cytotoxic effects at 30 and 90 µM; AC50 (BrainSpheres): 18.1 µM
4 | [CH3][Hg][Cl] [Methylmercury] | 1 | 1 | – | – | – | – | 0.182 | – | 0 | 0 | 0.15 | 0.18 | 0.283 | demonstrating cytotoxicity in the rNFA | Cytotoxicity / cell viability in the BrainSphere resazurin assay (in words) (BrainSpheres; day 13 of exposure): magnitude of the response was not sufficient to indicate a positive response; AC50 (BrainSpheres; [9]): 0.19 µM; Top BrainSphere.Cyto (BrainSpheres): −10
5 | CC(C)(c1ccc(O)cc1)c1ccc(O)cc1 [Bisphenol A] | 0 | 0 | 6.8 | – | – | – | – | – | 0 | 0 | 680 | 11523 | – | – | –
6 | CC1(C)S[C@@H]2[C@H](NC(=O)[C@H](N)c3ccc(O)cc3)C(=O)N2[C@H]1C(=O)O [Amoxicillin] | 0 | 0 | 45 | – | 0 | – | – | – | – | 0 | 94 | – | – | – | –
7 | CC1(C)[C@H](C(=O)O[C@H](C#N)c2cccc(Oc3ccccc3)c2)[C@@H]1C=C(Br)Br [Deltamethrin] | 0 | 0 | 45 | – | 0 | – | – | – | – | 0 | 102 | – | – | – | Cytotoxicity / cell viability in the BrainSphere resazurin assay (in words) (BrainSpheres): magnitude of the response was not sufficient to indicate a positive response
8 | Brc1ccc(Oc2ccc(Br)cc2Br)c(Br)c1 [BDE- 47] | 1 | 1 | – | – | – | – | 12.3 | – | 0 | 0 | 79 | 89 | 8.31 | demonstrating cytotoxicity in the rNFA | AC50 (BrainSpheres; [9]): 45 µM; Top BrainSphere.Cyto (BrainSpheres): 4.9
9 | CC(=O)Nc1ccc(O)cc1 [Acetaminophen] | 0 | 0 | – | 174 | 0 | 0 | – | 45 | – | – | – | – | – | – | –
10 | ClC1=C(Cl)[C@]2(Cl)[C@@H]3[C@@H]4C[C@@H]([C@H]5O[C@@H]45)[C@@H]3[C@@]1(Cl)C2(Cl)Cl [Dieldrin] | – | – | 45 | – | – | – | 11.3 | – | 0 | 0 | 509 | – | 22.4 | demonstrating cytotoxicity in the rNFA | hitc CCTE_Shafer_MEA_dev_LDH (2D rat cortical cultures [1]): 1; hitc CCTE_Shafer_MEA_dev_AB (2D rat cortical cultures [2]): 1
